According to patent US5498795A, “Acetylenes disubstituted with hydroxyaryl and aryl or heteroaryl groups having retinoid-like biological activity” (Allergan, Inc., priority 1994, dated 1996):

Tested on: ornithine decarboxylase (ODC)
Test: ODC assay: inhibition of TPA induction of ornithine decarboxylase
Format: in vivo
From the text: The retinoic acid-like activity of these compounds is confirmed through the classic measure of retinoic acid activity involving the effects of retinoic acid on ornithine decarboxylase. The original work on the correlation between retinoic acid and decrease in cell proliferation was done by Verma & Boutwell, Cancer Research, 1977, 37,2196-2201. That reference discloses that ornithine decarboxylase (ODC) activity increased precedent to polyamine biosynthesis. It has been established elsewhere that increases in polyamine synthesis can be correlated or associated with cellular proliferation. Thus, if ODC activity could be inhibited, cell hyperproliferation could be modulated. Although all cases for ODC activity increases are unknown, it is known that 12-0-tetradecanoylphorbol-13-acetate (TPA) induces ODC activity. Retinoic acid inhibits this induction of ODC activity by TPA. […] Activity of exemplary compounds of the present invention in the above-described ODC assay is disclosed in Table 2 which provides either […] (or other measured per cent inhibition at the indicated concentration) for the respective exemplary compound.

| SMILES | % of inhib (conc 100) | % of inhib (conc 300) |
| --- | --- | --- |
| CC(C)(C)c1ccc(C#Cc2ccc(C(=O)O)cn2)cc1O [Compound 20, 6-[2-[[2-t-Butyl-1-hydroxy]-5-phenyl]ethyn-1-yl]nicotinic acid] | 64% | – |
| O=C(O)c1ccc(C#Cc2ccc(C34CC5CC(CC(C5)C3)C4)c(O)c2)nc1 [Compound 23, 6-[2-[[2-(1-adamantyl)-1-hydroxy]-5-phenyl]-ethyn-1-yl]nicotinic acid] | – | 55% |
